In patent US20110263642A1, “METHODS FOR TREATMENT OF MULTIPLE SCLEROSIS” (FibroGen, Inc., priority 2008, published 2011):
Where two headings read alike, the source gives them in different places.

Columns and labels:
[1] = test system: Oligodendrocytes (MO3.13 cells); assay: Ceramide-induced cell death of oligodendrocytes, Calcein AM viability; format: cell-based; details: compound 20 μM, non-ceramide control = 100
Description: (See e.g., Craighead et al. (2000) Neurosci Lett. 278:125-8; Jana et al. (2007) J Neuroimmune Pharmacol. 2:184-93; Jana et al. (2009) J Neurol Sci. 278:5-15; Singh et al. (1998) J Biol. Chem. 273:20354-62.) In this model, addition of ceramide to cultured oligodendrocytes results in oxidative stress-induced cell death (i.e. apoptosis). The effect of compounds and methods of the present invention on the ability to improve oligodendrocyte viability following ceramide challenge was examined as follows. Oligodendrocytes (MO3.13 cells; Cedarlane Laboratories, Burlington, N.C.) were plated in 96-well culture dishes at a density of 4000 cells per well and cultured at 37° C., 10% CO2 in DMEM containing L-glutamine, sodium pyruvate, and 25 mM glucose (Mediatech Inc., Manassas, Va.) and supplemented with 10% FBS (Invitrogen Corporation, Carlsbad, Calif.). The next day, the plating media was removed and replaced with DMEM containing L-glutamine (Invitrogen Corporation, Carlsbad, Calif.) and supplemented with 5.5 mM glucose. Cells were then treated with vehicle (0.015% DMSO) or ceramide (Sigma-Aldrich, St. Louis, Mo.) plus vehicle (0.05% DMSO) or a compound of the invention (20 μM).
For cells treated longer than 3 days, half the media was removed after the third day of treatment and replaced with an equal volume of fresh treatment media containing vehicle (0.015% DMSO) or ceramide plus vehicle (0.05% DMSO) or a compound of the invention.
Cell viability was assessed 3, 4, and 5 days after treatment using the following protocol. Treatment media was removed from the cells and 100 ul of 1.67 uM Calcein AM reagent (Invitrogen Corporation, Carlsbad, Calif.) prepared in DMEM containing L-glutamine (Invitrogen Corporation, Carlsbad, Calif.) and supplemented with 5.5 mM glucose was added to each well. Cells were returned to 37° C. in a 10% CO2 incubator for approximately 30 minutes before assessing fluorescence (Ex 485 nm/Em 538 nm) using a microplate reader (Molecular Devices, Sunnyvale, Calif.). Images were taken of representative wells using a fluorescent microscope equipped with a camera (Nikon, Melville, N.Y.) and imaging software (Nikon, Melville, N.Y.).

[2] = test system: EAE animal model of chronic progressive multiple sclerosis; assay: Chronic progressive EAE induced by MOG35-55 and pertussis toxin in mice, neurological scoring to day 35; format: in vivo, C57BL/6 mice
Description: A chronic progressive model of EAE is an accepted animal model of human chronic progressive multiple sclerosis (MS). In this model, induction of chronic progressive EAE occurs following injections of myelin oligodendrocyte glycoprotein (MOG). Approximately 8 to 14 days after injection of MOG, animals develop chronic progressive paralysis similar to that observed in humans with chronic progressive MS.
Female C57BL/6 mice (8-10 weeks old) were used in this study (Taconic Farm, CA). Compounds of the present invention were formulated in 0.5% carboxymethyl cellulose (CMC) with 0.1% Polysorbate 80 to achieve a final concentration of either 1.2 mg/ml or 4.0 mg/ml. FTY-720 was also formulated in 0.5% carboxymethyl cellulose (CMC) with 0.1% Polysorbate 80 to achieve a final concentration of 2.0 mg/ml.
Induction of chronic progressive EAE by injection with myelin oligodendrocyte glycoprotein (MOG) was performed as follows. Mice were injected subcutaneously with 200 μg of myelin oligodendrocyte glycoprotein (MOG35-55) peptide emulsion in both sides of their pectoral regions (50 μl each side). At 8 hours and 48 hr after immunization with MOG, animals were injected intraperitoneally with 400 ng of pertussis toxin (PT) in 100 μl of saline. Control mice received both injections with an equivalent volume of saline without MOG or PT.
[…] FTY-720 (10 mg/kg) was used in this study as a positive control and was administered daily from day 0 to day 35.
Neurological scoring was performed daily from day 7 to day 35 following MOG injection. Grading of disease severity (i.e., disease score) was based on the following observations performed by two different observers: 0=no abnormality; 1=distal weakness of the tail (limp tail); 2=limp tail and weakness of hind legs (mild paraparesis); 3=limp tail and complete paralysis of hind legs or paralysis in one of one front leg and one hind leg (moderate paraparesis); 4=limp tail, complete hind leg and partial front leg paralysis (moderate quadraparesis); 5=complete hind and front leg paralysis (moribund). Analysis of variance (ANOVA) was performed on data from the measured (neurological score) parameters. p value≦0.05 were considered significant.

[3] = 72 h, ceramide 2.75 μM, read-out: % Viable at Day 3
[4] = 96 h, ceramide 2.75 μM, read-out: % Viable at Day 4
[5] = 120 h, ceramide 2.75 μM, read-out: % Viable at Day 5
[6] = 72 h, ceramide 2.25 μM, read-out: % Viable at Day 3
[7] = 96 h, ceramide 2.25 μM, read-out: % Viable at Day 4
[8] = 120 h, ceramide 2.25 μM, read-out: % Viable at Day 5

Compound | viability at 20 µM [1, 3] | viability at 20 µM [1, 4] | viability at 20 µM [1, 5] | viability at 20 µM [1, 6] | viability at 20 µM [1, 7] | viability at 20 µM [1, 8] | development of EAE disease (positive control) ([2]; 10 mg/kg daily, day 0 to day 35) | No. of Animals Showing No Disease Activity ([2]; through day 35, FTY-720 (Table 3: 10 mg/kg/d, daily))
COc1cc(F)cc(Oc2ccc3c(O)c(C(=O)NCC(=O)O)ncc3c2)c1 [Compound D, {[7-(3-Fluoro-5-methoxy-phenoxy)-4-hydroxy-isoquinoline-3-carbonyl]-amino}-acetic acid] | 79% | 74% | 61% |  |  |  |  | 
C[C@H](NC(=O)c1c(O)c2cc(Cl)cn2n(Cc2ccc(C(F)(F)F)cc2)c1=O)C(=O)O [Compound H, (S)-2-{[6-Chloro-4-hydroxy-2-oxo-1-(4-trifluoromethyl-benzyl)-1,2-dihydro-pyrrolo[1,2-b]pyridazine-3-carbonyl]-amino}-propionic acid] | 73% | 74% | 77% |  |  |  |  | 
O=C(O)CNC(=O)c1c(O)c2cccn2n(Cc2ccc(C(F)(F)F)cc2)c1=O [Compound G, {[4-Hydroxy-2-oxo-1-(4-trifluoromethyl-benzyl)-1,2-dihydro-pyrrolo[1,2-b]pyridazine-3-carbonyl]-amino}-acetic acid] |  |  |  | 94% | 86% | 80% |  | 
CC1(C)C(=O)C(C(=O)NCC(=O)O)=C(O)c2cc(Cl)ccc21 [Compound N, [(7-Chloro-1-hydroxy-4,4-dimethyl-3-oxo-3,4-dihydro-naphthalene-2-carbonyl)-amino]-acetic acid] | 82% | 67% | 67% |  |  |  |  | 
CCCCOc1ccc2c(O)c(C(=O)NCC(=O)O)c(=O)sc2c1 [Compound M, [(7-Butoxy-4-hydroxy-2-oxo-2H-thiochromene-3-carbonyl)-amino]-acetic acid] | 74% | 57% | 59% |  |  |  |  | 
CCCCCCOc1ccc2oc(=O)c(C(=O)NCC(=O)O)c(O)c2c1 [Compound K, [(6-Hexyloxy-4-hydroxy-2-oxo-2H-chromene-3-carbonyl)-amino]-acetic acid] | 72% | 43% | 56% |  |  |  |  | 
CCCCCCCCc1ccc(CCC(N)(CO)CO)cc1 [FTY-720, reference compound] |  |  |  |  |  |  | prevented the development of EAE disease | 7/7
COc1ccc(Cn2c(Cl)c(Cl)c3c(O)c(C(=O)NCC(=O)O)nc(C#N)c32)cc1 [Compound Q, {[2,3-Dichloro-7-cyano-4-hydroxy-1-(4-methoxy-benzyl)-1H-pyrrolo[2,3-c]pyridine-5-carbonyl]-amino}-acetic acid] | 70% | 59% | 50% |  |  |  |  | 
O=C(O)CNC(=O)c1ncc2cc(Oc3ccccc3)ccc2c1O [Compound F, [(4-Hydroxy-7-phenoxy-isoquinoline-3-carbonyl)-amino]-acetic acid] | 72% | 53% | 51% | 85% | 66% | 62% |  | 
O=C(O)CNC(=O)c1c(O)c2cc(Cl)cn2n(Cc2ccc(Cl)cc2)c1=O [Compound I, {[6-Chloro-1-(4-chloro-benzyl)-4-hydroxy-2-oxo-1,2-dihydro-pyrrolo[1,2-b]pyridazine-3-carbonyl]-amino}-acetic acid] | 76% | 66% | 64% |  |  |  |  | 
N#Cc1nc(C(=O)NCC(=O)O)c(O)c2ccn(Cc3ccc(-c4ccccc4)cc3)c12 [Compound P, [(1-Biphenyl-4-ylmethyl-7-cyano-4-hydroxy-1H-pyrrolo[2,3-c]pyridine-5-carbonyl)-amino]-acetic acid] |  |  |  | 79% | 80% | 77% |  | 
Cc1ccc(Oc2cccc3c(O)c(C(=O)NCC(=O)O)nc(-c4cccnc4)c23)cc1 [Compound C, [(4-Hydroxy-1-pyridin-3-yl-8-p-tolyloxy-isoquinoline-3-carbonyl)-amino]-acetic acid] |  |  |  | 61% | 51% | 16% |  | 
COc1ccc(-c2ccc3c(O)c(C(=O)NCC(=O)O)c(=O)sc3c2)cc1 [Compound L, {[4-Hydroxy-7-(4-methoxy-phenyl)-2-oxo-2H-thiochromene-3-carbonyl]-amino}-acetic acid] | 75% | 59% | 64% |  |  |  |  | 
N#Cc1nc(C(=O)NCC(=O)O)c(O)c2ccn(Cc3ccccc3F)c12 [Compound O, {[7-Cyano-1-(2-fluoro-benzyl)-4-hydroxy-1H-pyrrolo[2,3-c]pyridine-5-carbonyl]-amino}-acetic acid] | 74% | 53% | 52% |  |  |  |  | 
COc1cccc(Oc2cccc3c(O)c(C(=O)NCC(=O)O)ncc23)c1 [Compound E, {[4-Hydroxy-8-(3-methoxy-phenoxy)-isoquinoline-3-carbonyl]-amino}-acetic acid] | 84% | 74% | 71% |  |  |  |  | 
Cc1ccc(Oc2cccc3c(C#N)nc(C(=O)NCC(=O)O)c(O)c23)cc1 [Compound B, [(1-Cyano-4-hydroxy-5-p-tolyloxy-isoquinoline-3-carbonyl)-amino]-acetic acid] |  |  |  | 76% | 54% | 16% |  | 
O=C(O)CNC(=O)c1c(O)c2ccc(-c3ccc(Oc4ccccc4)cc3)cc2oc1=O [Compound J, {[4-Hydroxy-2-oxo-7-(4-phenoxy-phenyl)-2H-chromene-3-carbonyl]-amino}-acetic acid] | 70% | 36% | 22% |  |  |  |  | 
